The source of these data is patent US7135466B2 (Kirin Beer Kabushiki Kaisha, priority 1999, dated 2006).

For the assay, the target named is T1, c-kit (Homo sapiens, UniProt P10721).
T1 construct: MO7e (human megakaryocytic leukemia cell line) which had been arrested for 20 hr; endogenous in cells; host or cells: MO7e human megakaryocytic leukemia cell line
Description: Inhibitory activity against c-kit autophosphorylation (MO7e cells, h-SCF). Type of assay: cell-based. As to conditions: for IC50: MO7e cells, h-SCF stimulation, read-out: c-kit IC50; for inhibition at 1 µM: Mo7e, figure in parentheses in −( ), at 1000 nM. Summed up:
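Growth-arrested (20 hr) MO7e; cpd in DMSO, 1 hr; h-SCF 50 ng/ml, 5 min; lyse. ELISA: anti-pTyr (PY-20) capture, anti-c-kit 1° Ab, HRP anti-rabbit 2° Ab, A450.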

T1 sequence (P10721 26-976): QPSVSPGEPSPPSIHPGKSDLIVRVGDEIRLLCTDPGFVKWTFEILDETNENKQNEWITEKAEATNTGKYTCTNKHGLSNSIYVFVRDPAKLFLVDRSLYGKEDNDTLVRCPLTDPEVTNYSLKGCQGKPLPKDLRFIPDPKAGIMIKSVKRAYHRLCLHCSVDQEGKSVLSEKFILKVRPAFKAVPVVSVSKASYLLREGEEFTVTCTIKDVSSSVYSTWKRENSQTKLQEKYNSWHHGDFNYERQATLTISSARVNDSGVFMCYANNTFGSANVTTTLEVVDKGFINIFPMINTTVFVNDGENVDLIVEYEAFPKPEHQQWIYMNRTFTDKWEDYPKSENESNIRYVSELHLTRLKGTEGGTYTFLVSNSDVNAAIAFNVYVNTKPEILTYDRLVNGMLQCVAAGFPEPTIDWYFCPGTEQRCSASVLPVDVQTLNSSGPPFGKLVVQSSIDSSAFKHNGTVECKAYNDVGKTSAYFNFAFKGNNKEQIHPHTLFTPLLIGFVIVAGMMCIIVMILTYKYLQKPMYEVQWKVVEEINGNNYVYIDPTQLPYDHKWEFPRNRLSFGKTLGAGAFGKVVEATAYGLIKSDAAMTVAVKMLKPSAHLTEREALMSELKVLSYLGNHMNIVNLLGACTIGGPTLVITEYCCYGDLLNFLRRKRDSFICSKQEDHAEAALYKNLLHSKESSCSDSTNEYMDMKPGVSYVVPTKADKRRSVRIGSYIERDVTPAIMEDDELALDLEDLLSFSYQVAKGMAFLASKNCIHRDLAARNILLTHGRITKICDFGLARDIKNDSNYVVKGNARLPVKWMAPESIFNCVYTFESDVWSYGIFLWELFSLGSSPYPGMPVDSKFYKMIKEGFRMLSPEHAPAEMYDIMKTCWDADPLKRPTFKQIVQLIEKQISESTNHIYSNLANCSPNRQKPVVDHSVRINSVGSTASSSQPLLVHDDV

As a reminder, the IC50 is the concentration needed to halve the response being measured. As to `COc1cc2ncnc(Oc3ccc(NC(=S)NC(=O)c4ccccc4Cl)cc3)c2cc1OC` [Example 928, N-(2-Chlorobenzoyl)-N′-{4-[(6,7-dimethoxy-4-quinazolinyl)oxy]phenyl}thiourea], the IC50 was determined as 289 nM.

As a reminder, the inhibition is how much of the control response was suppressed. As to `COc1cc2ncnc(Oc3ccc(NC(=S)NC(=O)c4ccccc4OC)cc3)c2cc1OC` [Example 929, N-{4-[(6,7-Dimethoxy-4-quinazolinyl)oxy]phenyl}-N′-(2-methoxybenzoyl)thiourea], the inhibition at 1 µM was determined as 21%.

Regarding `COc1cc2nccc(Oc3ccc(NC(=S)NC(=O)c4cccc(F)c4)cc3)c2cc1OC` [Example 931, N-{4-[(6,7-Dimethoxy-4-quinolyl)oxy]phenyl}-N′-(3-fluorobenzoyl)thiourea], the IC50 was 516 nM.

Regarding `COc1cc2nccc(Oc3ccc(NC(=S)NC(=O)c4cccc(Cl)c4)cc3)c2cc1OC` [Example 932, N-(3-Chlorobenzoyl)-N′-{4-[(6,7-dimethoxy-4-quinolyl)oxy]phenyl}thiourea], the IC50 was 208 nM.

As to `COc1cccc(C(=O)NC(=S)Nc2ccc(Oc3ccnc4cc(OC)c(OC)cc34)cc2)c1` [Example 933, N-{4-[(6,7-Dimethoxy-4-quinolyl)oxy]phenyl}-N′-(3-methoxybenzoyl)thiourea], the IC50 was determined as 493 nM.

As for `COc1cc2nccc(Oc3ccc(NC(=S)NC(=O)c4cccc(C(F)(F)F)c4)cc3)c2cc1OC` [Example 934, N-{4-[(6,7-Dimethoxy-4-quinolyl)oxy]phenyl}-N′-[3-(trifluoromethyl)benzoyl]thiourea], the IC50 came out at 143 nM.

Turning to `COc1cc2nccc(Oc3ccc(NC(=S)NC(=O)c4cccc(Br)c4)cc3)c2cc1OC` [Example 935, N-(3-Bromobenzoyl)-N′-{4-[(6,7-dimethoxy-4-quinolyl)oxy]phenyl}thiourea], the IC50 came out at 166 nM.

For `COc1cc2nccc(Oc3ccc(NC(=S)NC(=O)c4cccc(C)c4)c(F)c3)c2cc1OC` [Example 936, N-{4-[(6,7-Dimethoxy-4-quinolyl)oxy]-2-fluorophenyl}-N′-(3-methylbenzoyl)thiourea], the IC50 came to 427 nM.

For the molecule `COc1cc2nccc(Oc3ccc(NC(=S)NC(=O)c4cccc(F)c4)c(F)c3)c2cc1OC` [Example 937, N-{4-[(6,7-Dimethoxy-4-quinolyl)oxy]-2-fluorophenyl}-N′-(3-fluorobenzoyl)thiourea], the IC50 stood at 819 nM.

As to `COc1cc2nccc(Oc3ccc(NC(=S)NC(=O)c4cccc(Cl)c4)c(F)c3)c2cc1OC` [Example 938, N-(3-Chlorobenzoyl)-N′-{4-[(6,7-dimethoxy-4-quinolyl)oxy]-2-fluorophenyl}thiourea], the IC50 was determined as 532 nM.

Turning to `COc1cccc(C(=O)NC(=S)Nc2ccc(Oc3ccnc4cc(OC)c(OC)cc34)cc2F)c1` [Example 939, N-{4-[(6,7-Dimethoxy-4-quinolyl)oxy]-2-fluorophenyl}-N′-(3-methoxybenzoyl)thiourea], the IC50 was 220 nM.

As for `COc1cc2nccc(Oc3ccc(NC(=S)NC(=O)c4cccc(Br)c4)c(F)c3)c2cc1OC` [Example 940, N-(3-Bromobenzoyl)-N′-{4-[(6,7-dimethoxy-4-quinolyl)oxy]-2-fluorophenyl}thiourea], the IC50 turned out to be 292 nM.

For the molecule `COc1cc2nccc(Oc3ccc(NC(=S)NC(=O)c4cccc(C)c4)cc3F)c2cc1OC` [Example 941, N-{4-[(6,7-Dimethoxy-4-quinolyl)oxy]-3-fluorophenyl}-N′-(3-methylbenzoyl)thiourea], the half-inhibitory concentration (IC50) was determined as 145 nM.

Consider `COc1cc2nccc(Oc3ccc(NC(=S)NC(=O)c4cccc(F)c4)cc3F)c2cc1OC` [Example 942, N-{4-[(6,7-Dimethoxy-4-quinolyl)oxy]-3-fluorophenyl}-N′-(3-fluorobenzoyl)thiourea], for which the IC50 was 335 nM.

For the molecule `COc1cc2nccc(Oc3ccc(NC(=S)NC(=O)c4cccc(Cl)c4)cc3F)c2cc1OC` [Example 943, N-(3-Chlorobenzoyl)-N′-{4-[(6,7-dimethoxy-4-quinolyl)oxy]-3-fluorophenyl}thiourea], the IC50 was 136 nM.

Take `COc1cccc(C(=O)NC(=S)Nc2ccc(Oc3ccnc4cc(OC)c(OC)cc34)c(F)c2)c1` [Example 944, N-{4-[(6,7-Dimethoxy-4-quinolyl)oxy]3-fluorophenyl}-N′-(3-methoxybenzoyl)thiourea]: the IC50 was determined as 140 nM.

As for `COc1cc2nccc(Oc3ccc(NC(=S)NC(=O)c4cccc(C(F)(F)F)c4)cc3F)c2cc1OC` [Example 945, N-{4-[(6,7-Dimethoxy-4-quinolyl)oxy]-3-fluorophenyl}-N′-[3-(trifluoromethyl)benzoyl]thiourea], the IC50 worked out at 131 nM.

Take `COc1cc2nccc(Oc3ccc(NC(=S)NC(=O)c4cccc(Br)c4)cc3F)c2cc1OC` [Example 946, N-(3-Bromobenzoyl)-N′-{4-[(6,7-dimethoxy-4-quinolyl)oxy]-3-fluorophenyl}thiourea]: the IC50 was determined as 142 nM.

For the molecule `COc1cc2nccc(Oc3ccc(NC(=S)NC(=O)c4cccc(C)c4)cc3Cl)c2cc1OC` [Example 947, N-{3-Chloro-4-[(67-dimethoxy-4-quinolyl)oxy]phenyl}-N′-(3-methylbenzoyl)thiourea], the IC50 is 375 nM.

Consider `COc1cc2nccc(Oc3ccc(NC(=S)NC(=O)c4cccc(F)c4)cc3Cl)c2cc1OC` [Example 948, N-{3-Chloro-4-[(67-dimethoxy-4-quinolyl)oxy]phenyl}-N′-(3-fluorobenzoyl)thiourea], for which the half-maximal inhibitory concentration (IC50) amounted to 830 nM.

Regarding `COc1cc2nccc(Oc3ccc(NC(=S)NC(=O)c4cccc(Cl)c4)cc3Cl)c2cc1OC` [Example 949], the IC50 came to 250 nM.

In the case of `COc1cccc(C(=O)NC(=S)Nc2ccc(Oc3ccnc4cc(OC)c(OC)cc34)c(Cl)c2)c1` [Example 950, N-{3-Chloro-4-[(6,7-dimethoxy-4-quinolyl)oxy]phenyl}-N′-(3-methoxybenzoyl)thiourea], the IC50 is 224 nM.

Regarding `COc1cc2nccc(Oc3ccc(NC(=S)NC(=O)c4cccc(C(F)(F)F)c4)cc3Cl)c2cc1OC` [Example 951, N-{3-Chloro-4-[(6,7-dimethoxy-4-quinolyl)oxy]phenyl}-N′-[3-(trifluoromethyl)benzoyl]-thiourea], the IC50 is 124 nM.

As for `COc1cc2nccc(Oc3ccc(NC(=S)NC(=O)c4cccc(Br)c4)cc3Cl)c2cc1OC` [Example 952, N-(3-Bromobenzoyl)-N′-{3-chloro-4-[(6,7-dimethoxy-4-quinolyl)oxy]phenyl}thiourea], the IC50 was found to be 317 nM.

`COc1cc2nccc(Oc3ccc(NC(=S)NC(=O)c4cccc(C)c4)c([N+](=O)[O-])c3)c2cc1OC` [Example 953, N-{4-[(6,7-Dimethoxy-4-quinolyl)oxy]-2-nitrophenyl}-N′-(3-methylbenzoyl)thiourea]: the inhibition at 1 µM amounted to 32%.

As for `COc1cc2ncnc(Oc3ccc(NC(=S)NC(=O)c4cccc(C)c4)cc3)c2cc1OC` [Example 954, N-{4-[(6,7-Dimethoxy-4-quinazolinyl)-oxy]phenyl}-N′-(3-methylbenzoyl)thiourea], the IC50 was 131 nM.

`COc1cc2ncnc(Oc3ccc(NC(=S)NC(=O)c4cccc(Cl)c4)cc3)c2cc1OC` [Example 955, N-(3-Chlorobenzoyl)-N′-{4-[(6,7-dimethoxy-4-quinazolinyl)oxy]phenyl}thiourea]: the IC50 came out at 251 nM.

As for `COc1cccc(C(=O)NC(=S)Nc2ccc(Oc3ncnc4cc(OC)c(OC)cc34)cc2)c1` [Example 956, N-{4-[(6,7-Dimethoxy-4-quinazolinyl)oxy]phenyl}-N′-(3-methoxybenzoyl)thiourea], the IC50 amounted to 326 nM.

As to `COc1cc2ncnc(Oc3ccc(NC(=S)NC(=O)c4cccc(C(F)(F)F)c4)cc3)c2cc1OC` [Example 957, N-{4-[(6,7-Dimethoxy-4-quinazolinyl)oxy]phenyl}-N′-[3-(trifluoromethyl)benzoyl]thiourea], the IC50 turned out to be 136 nM.

Take `COc1cc2ncnc(Oc3ccc(NC(=S)NC(=O)c4cccc(Br)c4)cc3)c2cc1OC` [Example 958, N-(3-Bromobenzoyl)-N′-{4-[(6,7-dimethoxy-4-quinazolinyl)oxy]phenyl}thiourea]: the IC50 was 194 nM.

As to `COc1cc2nccc(Oc3ccc(NC(=S)NC(=O)c4ccc(Cl)cc4)cc3)c2cc1OC` [Example 960, N-(4-Chlorobenzoyl)-N′-{4-[(6,7-dimethoxy-4-quinolyl)oxy]phenyl}thiourea], the IC50 was 629 nM.

Consider `COc1cc2nccc(Oc3ccc(NC(=S)NC(=O)c4ccc(F)cc4)cc3)c2cc1OC` [Example 961, N-{4-[(6,7-Dimethoxy-4-quinolyl)oxy]phenyl}-N′-(4-fluorobenzoyl)thiourea], for which the IC50 stood at 740 nM.

Turning to `COc1cc2nccc(Oc3ccc(NC(=S)NC(=O)c4ccc([N+](=O)[O-])cc4)cc3)c2cc1OC` [Example 962, N-{4-[(6,7-Dimethoxy-4-quinolyl)oxy]phenyl}-N′-(4-nitrobenzoyl)thiourea], the inhibition at 1 µM worked out at 35%.

As to `COc1ccc(C(=O)NC(=S)Nc2ccc(Oc3ccnc4cc(OC)c(OC)cc34)cc2)cc1` [Example 963, N-{4-[(6,7-Dimethoxy-4-quinolyl)oxy]phenyl}-N′-(4-methoxybenzoyl)thiourea], the IC50 came to 701 nM.

Take `COc1cc2nccc(Oc3ccc(NC(=S)NC(=O)c4ccc(C)cc4)c(F)c3)c2cc1OC` [Example 964, N-{4-[(6,7-Dimethoxy-4-quinolyl)oxy]-2-fluorophenyl}-N′-(4-methylbenzoyl)thiourea]: the inhibition at 1 µM is 46%.

As to `COc1cc2nccc(Oc3ccc(NC(=S)NC(=O)c4ccc(Cl)cc4)c(F)c3)c2cc1OC` [Example 965, N-(4-Chlorobenzoyl)-N′-{4-[(6,7-dimethoxy-4-quinolyl)oxy]-2-fluorophenyl}thiourea], the inhibition at 1 µM came to 24%.

Consider `COc1cc2nccc(Oc3ccc(NC(=S)NC(=O)c4ccc(F)cc4)c(F)c3)c2cc1OC` [Example 966, N-{4-[(6,7-Dimethoxy-4-quinolyl)oxy]-2-fluorophenyl}-N′-(4-fluorobenzoyl)thiourea], for which the IC50 was 233 nM.
